Earlier results as cited in patent publication US20120196889A1, “CATECHOLAMINE DERIVATIVES AND PRODRUGS THEREOF” (H. Lundbeck A/S, priority 2009, published 2012).

Conditions: in man after oral dosing; high hepatic first-pass metabolism

oral bioavailability: ~4%
Structure (SMILES): CCCc1cc2c(s1)CN[C@@H]1CCc3cc(OC(C)=O)c(OC(C)=O)cc3[C@@H]21 [Adrogolide]
